Measurements from BindingDB's records for doi:10.1021/jm00170a025 (Royal Danish School of Pharmacy, 1990).

Experiment: Effective concentration required to stimulate Adenylate cyclase

- EC50: 0.21 µM
SMILES: Cc1ccc([C@H]2CNCCc3cc(O)c(O)cc32)cc1
